From PubChem BioAssay (NCI) come the findings set out here.

Test systems include K-562 leukemia; MCF7 breast; HT29 colon; HL-60(TB) leukemia; LOX IMVI melanoma; NCI/ADR-RES ovarian; SW-620 colon; U251 CNS; HS 578T breast; HCT-15 colon.
Common to all, as to assay: NCI-60 cell line screen, 48 h

The structures appear in SMILES notation.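 Results reflect a 48-hour exposure of cells in 96-well plates to compound at five concentrations. TGI: total growth inhibition.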

For the compound `Nc1nc(Cl)c(N)c(NCC2(CO)CC(OCc3ccccc3)C2)n1` (configuration not stated), the TGI in the assay on K-562 leukemia, in the assay with MCF7 breast, in the assay with HT29 colon, in the assay with HL-60(TB) leukemia, with LOX IMVI melanoma and in the assay on NCI/ADR-RES ovarian was above 100 µM in each case. The TGI in the assay with SW-620 colon, with U251 CNS, with HS 578T breast and with HCT-15 colon was above 100 µM throughout.
On to `CN(CCn1cnc2c1c(=O)n(C)c(=O)n2C)C1CCCCC1`, for which the TGI in the assay with K-562 leukemia, in the assay on MCF7 breast, in the assay on HT29 colon, in the assay with HL-60(TB) leukemia, with LOX IMVI melanoma and in the assay with NCI/ADR-RES ovarian was above 100 µM in each case. Besides, the TGI in the assay on SW-620 colon, with U251 CNS, in the assay with HS 578T breast and in the assay with HCT-15 colon was above 100 µM each time.
Consider `C[n+]1c(-c2ccc(/C=N/NC(=N)N/N=C/c3ccc(-c4cn5cc(Cl)ccc5[n+]4C)cc3)cc2)cn2cc(Cl)ccc21`, for which the TGI in the assay on K-562 leukemia, in the assay with MCF7 breast, in the assay on HT29 colon, in the assay with HL-60(TB) leukemia, in the assay on NCI/ADR-RES ovarian and in the assay on SW-620 colon was above 100 µM throughout. In addition, the TGI in the assay on U251 CNS, with HS 578T breast and in the assay with HCT-15 colon was above 100 µM in each case.
Take `CC[C@]12C=CCN3CC[C@@]4(c5cc(Br)c(OC)cc5N(C)[C@H]4[C@@](O)(C(=O)NN)[C@@H]1O)[C@@H]32`: the TGI in the assay on K-562 leukemia, in the assay on MCF7 breast, in the assay with HT29 colon, with HL-60(TB) leukemia, with LOX IMVI melanoma and in the assay with NCI/ADR-RES ovarian was above 100 µM each time. In addition, the TGI with SW-620 colon, with U251 CNS, with HS 578T breast and with HCT-15 colon was above 100 µM throughout.
With `CC(C)/C(Cl)=N\OC(=O)Nc1ccccc1F`, the TGI in the assay on K-562 leukemia was 6.52 µM; with MCF7 breast it was 16 µM; with HT29 colon it was 54.3 µM; in the assay on HL-60(TB) leukemia, 4.13 µM; in the assay on LOX IMVI melanoma it was 6.92 µM; with NCI/ADR-RES ovarian, 30.7 µM. Besides, the TGI in the assay on SW-620 colon was 3.59 µM; in the assay on U251 CNS, 31.1 µM; in the assay with HS 578T breast, above 69.3 µM; with HCT-15 colon it was 31.3 µM.
With `CCCCC(C#N)(OP1(=O)OC(c2ccccc2)C(C)N1C)c1ccccc1` (configuration not stated), the TGI stood at 44.8 µM in the assay on K-562 leukemia; 39 µM in the assay on MCF7 breast; 33.8 µM in the assay with HT29 colon; 36 µM in the assay on HL-60(TB) leukemia; 36.7 µM with LOX IMVI melanoma; 52 µM with NCI/ADR-RES ovarian. The TGI in the assay with SW-620 colon is 34.3 µM; with U251 CNS, 31.4 µM; with HS 578T breast it was 39.3 µM; with HCT-15 colon, 54.8 µM.
In the case of `Nc1ncnc2c1nnn2C1C=CC(COS(N)(=O)=O)C1` (configuration not stated), the TGI in the assay with K-562 leukemia was above 100 µM; with MCF7 breast, above 100 µM; in the assay with HT29 colon it was 98.5 µM; with HL-60(TB) leukemia, 17.1 µM; with LOX IMVI melanoma, 17.8 µM; in the assay with NCI/ADR-RES ovarian it was above 100 µM. Further, the TGI is above 100 µM in the assay on SW-620 colon, 57.7 µM in the assay with U251 CNS, 8.3 µM in the assay with HS 578T breast and above 100 µM in the assay on HCT-15 colon.
As to `O=C1CCC2(CC1CC(Sc1ccccc1)Sc1ccccc1)OCCO2` (configuration not stated), the TGI is above 100 µM in the assay with K-562 leukemia; above 100 µM in the assay on MCF7 breast; above 100 µM in the assay with HT29 colon; 46 µM with HL-60(TB) leukemia; above 100 µM in the assay on LOX IMVI melanoma; above 100 µM in the assay with NCI/ADR-RES ovarian. The TGI in the assay on SW-620 colon is above 100 µM; in the assay on U251 CNS, above 100 µM; with HS 578T breast, 88.1 µM; in the assay with HCT-15 colon it was above 100 µM.
Turning to `O=C1NC(SSC2=NNC3(C(=O)N2)c2ccccc2-c2ccccc23)=NNC12c1ccccc1-c1ccccc12`, the TGI with K-562 leukemia, with MCF7 breast, in the assay with HT29 colon, in the assay on HL-60(TB) leukemia, in the assay on LOX IMVI melanoma and with NCI/ADR-RES ovarian was above 10 µM throughout. Moreover, the TGI in the assay with SW-620 colon, in the assay on U251 CNS, in the assay with HS 578T breast and in the assay on HCT-15 colon was above 10 µM in each case.
As for `O=C(O)c1cc2ccccc2c(N=Nc2ccc(S(=O)(=O)Nc3nccs3)cc2)c1O`, the TGI in the assay with K-562 leukemia, in the assay with MCF7 breast, in the assay with HT29 colon, in the assay with HL-60(TB) leukemia, in the assay on NCI/ADR-RES ovarian and in the assay with SW-620 colon was above 100 µM in each case. The TGI in the assay with U251 CNS, in the assay on HS 578T breast and in the assay with HCT-15 colon was above 100 µM each time.
For `CCN(CC)CC1CCCCN1CC(=O)N1c2ccccc2NC(=O)CC1C` (configuration not stated), the TGI with K-562 leukemia, in the assay with MCF7 breast, in the assay with HT29 colon, in the assay on HL-60(TB) leukemia, in the assay with LOX IMVI melanoma and in the assay with NCI/ADR-RES ovarian was above 100 µM throughout. Besides, the TGI with SW-620 colon, with U251 CNS, in the assay with HS 578T breast and in the assay with HCT-15 colon was above 100 µM in each case.
As for `O=[N+]([O-])C1CC/C(=N/O)c2nonc21` (configuration not stated), the TGI with K-562 leukemia, in the assay on MCF7 breast, with HT29 colon, with HL-60(TB) leukemia, in the assay on NCI/ADR-RES ovarian and in the assay with SW-620 colon was above 10 µM in each case. The TGI with U251 CNS, in the assay with HS 578T breast and in the assay on HCT-15 colon was above 10 µM each time.
As for `CC1(C)N=C(C(N)=O)c2ncn(N)c2N1`, the TGI in the assay with K-562 leukemia, in the assay on MCF7 breast, in the assay on HT29 colon, in the assay with HL-60(TB) leukemia, in the assay with LOX IMVI melanoma and in the assay on NCI/ADR-RES ovarian was above 100 µM each time. Further, the TGI in the assay on SW-620 colon, in the assay on U251 CNS, in the assay with HS 578T breast and in the assay on HCT-15 colon was above 100 µM throughout.
Take `CCCCc1ccc(Nc2nc3c(ncn3C3CC(O)C(CN=[N+]=[N-])O3)c(=O)[nH]2)cc1` (configuration not stated): the TGI in the assay with K-562 leukemia, in the assay with MCF7 breast, with HT29 colon, in the assay with HL-60(TB) leukemia, in the assay with LOX IMVI melanoma and with NCI/ADR-RES ovarian was above 100 µM in each case. For the same compound, the TGI in the assay on SW-620 colon, in the assay on U251 CNS, in the assay on HS 578T breast and with HCT-15 colon was above 100 µM throughout.
